Test results taken from patent US10034886B2, “GLP-1 receptor modulators” (Celgene International II SÀRL, priority 2014, dated 2018).
pEC50: −log10 of the molar value.

molecular target: T1, GLP-1R (Homo sapiens, UniProt P43220); test: EC20 GLP-1(9-36) PAM cAMP assay: dose response of compound in the presence of fixed concentration of GLP-1(9-36); format: cell-based; conditions: dose response of compound in presence of fixed concentration of GLP-1(9-36), GLP-1R CRE-bla CHO-K1 cells, read-out: EC20 GLP-1(9-36) PAM EC50
T1 construct: host or cells: GLP-1R CRE-bla CHO-K1 cells
T1 sequence (P43220 24-463): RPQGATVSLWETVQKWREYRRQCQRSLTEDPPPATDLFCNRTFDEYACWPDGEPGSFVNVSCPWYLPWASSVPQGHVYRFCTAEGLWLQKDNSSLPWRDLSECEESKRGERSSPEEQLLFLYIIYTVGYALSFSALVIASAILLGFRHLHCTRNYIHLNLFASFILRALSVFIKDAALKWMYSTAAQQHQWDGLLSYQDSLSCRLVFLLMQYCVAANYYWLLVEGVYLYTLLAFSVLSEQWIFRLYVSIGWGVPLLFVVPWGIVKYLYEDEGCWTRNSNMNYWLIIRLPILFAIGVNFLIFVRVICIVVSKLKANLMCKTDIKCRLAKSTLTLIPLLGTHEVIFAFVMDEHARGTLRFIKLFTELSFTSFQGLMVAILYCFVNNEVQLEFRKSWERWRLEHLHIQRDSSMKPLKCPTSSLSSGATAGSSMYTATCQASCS
T1 sequence (P01275 100-127 partner limits assumed): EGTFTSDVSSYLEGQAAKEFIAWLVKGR
Outline: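 Positive allosteric modulation read as cAMP accumulation: compound titrations (12 points) combined with an EC20 level of GLP-1(9-36) on CHO-K1 GLP-1R CRE-bla cells, IBMX present, 30 min, 37 °C, pH 7.4 buffer. Luminescence converted to cAMP via standards; non-linear fit gave EC50 and Emax.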

pEC50 | SMILES
> 6.10 | CCCCCCCCOc1ccc(-c2cnc(-c3ccc(C[C@H](NC(=O)c4ccc(C(C)(C)C)s4)C(=O)N[C@H](C)C(=O)O)cc3)nc2)cc1 [Compound 736]
> 6.10 | CCCCCCCc1ccc(-c2cnc(-c3ccc(C[C@H](NC(=O)c4ccc(C(C)(C)C)s4)C(=O)N[C@H](C)C(=O)O)cc3)nc2)cc1 [Compound 737]
> 6.10 | CCCCCC(=O)c1ccc(-c2cnc(-c3ccc(C[C@H](NC(=O)c4ccc(C(C)(C)C)s4)C(=O)N[C@H](C)C(=O)O)cc3)nc2)cc1 [Compound 738]
> 6.10 | C[C@@H](NC(=O)[C@H](Cc1ccc(-c2ncc(-c3ccc(OCC(C)(C)C)cc3)cn2)cc1)NC(=O)c1ccc(C(C)(C)C)s1)C(=O)O [Compound 739]
5.30 to 5.60 | C[C@@H](NC(=O)[C@H](Cc1ccc(-c2ncc(-c3ccc(N4CCCCC4)cc3)cn2)cc1)NC(=O)c1ccc(C(C)(C)C)s1)C(=O)O [Compound 740]
5.30 to 5.60 | C[C@@H](NC(=O)[C@H](Cc1ccc(-c2ncc(-c3ccc(-c4ccccc4)cc3)cn2)cc1)NC(=O)c1ccc(C(C)(C)C)s1)C(=O)O [Compound 741]
5.30 to 5.60 | C[C@@H](NC(=O)[C@H](Cc1ccc(-c2ncc(-c3ccc(C(F)(F)F)cc3)cn2)cc1)NC(=O)c1ccc(C(C)(C)C)s1)C(=O)O [Compound 742]
5.00 to 5.30 | CCCCc1noc(-c2cnc(-c3ccc(C[C@H](NC(=O)c4ccc(C(C)(C)C)cc4)C(=O)NCCC(=O)O)cc3)nc2)n1 [Compound 743]
5.00 to 5.30 | CC(C)(C)Cc1noc(-c2cnc(-c3ccc(C[C@H](NC(=O)c4ccc(C(C)(C)C)cc4)C(=O)NCCC(=O)O)cc3)nc2)n1 [Compound 744]
5.60 to 6.10 | CC(C)(C)c1ccc(C(=O)N[C@@H](Cc2ccc(-c3ncc(-c4nc(-c5ccc(C(C)(C)C)cc5)no4)cn3)cc2)C(=O)NCCC(=O)O)cc1 [Compound 745]
5.30 to 5.60 | CC(C)(C)c1ccc(C(=O)N[C@@H](Cc2ccc(-c3ncc(-c4nc(CCc5ccccc5)no4)cn3)cc2)C(=O)NCCC(=O)O)cc1 [Compound 746]
5.30 to 5.60 | CC(C)(C)c1ccc(C(=O)N[C@@H](Cc2ccc(-c3ncc(-c4nc(CC5CCCCC5)no4)cn3)cc2)C(=O)NCCC(=O)O)cc1 [Compound 747]
5.30 to 5.60 | Cc1ccc(-c2cccc(-c3noc(-c4cnc(-c5ccc(C[C@H](NC(=O)c6ccc(C(C)(C)C)cc6)C(=O)NCCC(=O)O)cc5)nc4)n3)c2)cc1 [Compound 748]
5.60 to 6.10 | CC(C)CCc1noc(-c2cnc(-c3ccc(C[C@H](NC(=O)c4ccc(C(C)(C)C)cc4)C(=O)NCCC(=O)O)cc3)nc2)n1 [Compound 749]
5.30 to 5.60 | Cc1cccc(-c2noc(-c3cnc(-c4ccc(C[C@H](NC(=O)c5ccc(C(C)(C)C)cc5)C(=O)NCCC(=O)O)cc4)nc3)n2)c1 [Compound 750]
5.30 to 5.60 | CC(C)(C)c1ccc(C(=O)N[C@@H](Cc2ccc(-c3ncc(-c4nc(-c5ccc(Cl)cc5)no4)cn3)cc2)C(=O)NCCC(=O)O)cc1 [Compound 751]
5.00 to 5.30 | CC(C)(C)c1ccc(C(=O)N[C@@H](Cc2ccc(-c3ncc(-c4nc(-c5ccc(Cl)c(Cl)c5)no4)cn3)cc2)C(=O)NCCC(=O)O)cc1 [Compound 752]
5.30 to 5.60 | CCCCCc1noc(-c2cnc(-c3ccc(C[C@H](NC(=O)c4ccc(C(C)(C)C)cc4)C(=O)NCCC(=O)O)cc3)nc2)n1 [Compound 753]
5.00 to 5.30 | CCCCCCCc1noc(-c2cnc(-c3ccc(C[C@H](NC(=O)c4ccc(C(C)(C)C)cc4)C(=O)NCCC(=O)O)cc3)nc2)n1 [Compound 754]
5.30 to 5.60 | CCCCCCCCc1noc(-c2cnc(-c3ccc(C[C@H](NC(=O)c4ccc(C(C)(C)C)cc4)C(=O)NCCC(=O)O)cc3)nc2)n1 [Compound 755]
5.00 to 5.30 | CCCCCCc1noc(-c2ccc(-c3cnc(-c4ccc(C[C@H](NC(=O)c5ccc(C(C)(C)C)cc5)C(=O)NCCC(=O)O)cc4)nc3)cc2)n1 [Compound 756]
5.60 to 6.10 | CC(C)(C)c1ccc(C(=O)N[C@@H](Cc2ccc(-c3ncc(-c4nc(-c5cccc(Oc6ccccc6)c5)no4)cn3)cc2)C(=O)NCCC(=O)O)cc1 [Compound 757]
5.30 to 5.60 | CC(C)(C)c1ccc(C(=O)N[C@@H](Cc2ccc(-c3ncc(-c4nc(-c5cccc(Cl)c5)no4)cn3)cc2)C(=O)NCCC(=O)O)cc1 [Compound 758]
5.60 to 6.10 | CCCCOc1cccc(-c2noc(-c3cnc(-c4ccc(C[C@H](NC(=O)c5ccc(C(C)(C)C)cc5)C(=O)NCCC(=O)O)cc4)nc3)n2)c1 [Compound 759]
5.60 to 6.10 | CCCCCCOc1cccc(-c2noc(-c3cnc(-c4ccc(C[C@H](NC(=O)c5ccc(C(C)(C)C)cc5)C(=O)NCCC(=O)O)cc4)nc3)n2)c1 [Compound 760]
5.30 to 5.60 | CCCOc1ccc(-c2cnc(-c3ccc(C[C@H](NC(=O)c4ccc(C(C)(C)C)s4)C(=O)N4CC[C@H](C(=O)O)C4)cc3)nc2)cc1 [Compound 761]
5.00 to 5.30 | CCCCCOc1ccc(-c2cnc(-c3ccc(C[C@H](NC(=O)c4ccc(C(C)(C)C)s4)C(=O)N4CC[C@H](C(=O)O)C4)cc3)nc2)cc1 [Compound 762]

pEC50 | SMILES
5.60 to 6.10 | CCCCCCOc1ccc(-c2cnc(-c3ccc(C[C@H](NC(=O)c4ccc(C(C)(C)C)s4)C(=O)N4CC[C@H](C(=O)O)C4)cc3)nc2)cc1 [Compound 763]
> 6.10 | CCCCCCCCOc1ccc(-c2cnc(-c3ccc(C[C@H](NC(=O)c4ccc(C(C)(C)C)s4)C(=O)N4CC[C@H](C(=O)O)C4)cc3)nc2)cc1 [Compound 764]
5.60 to 6.10 | CCCCCCCc1ccc(-c2cnc(-c3ccc(C[C@H](NC(=O)c4ccc(C(C)(C)C)s4)C(=O)N4CC[C@H](C(=O)O)C4)cc3)nc2)cc1 [Compound 765]
5.30 to 5.60 | CCCCCC(=O)c1ccc(-c2cnc(-c3ccc(C[C@H](NC(=O)c4ccc(C(C)(C)C)s4)C(=O)N4CC[C@H](C(=O)O)C4)cc3)nc2)cc1 [Compound 766]
5.30 to 5.60 | CC(C)(C)COc1ccc(-c2cnc(-c3ccc(C[C@H](NC(=O)c4ccc(C(C)(C)C)s4)C(=O)N4CC[C@H](C(=O)O)C4)cc3)nc2)cc1 [Compound 767]
5.60 to 6.10 | CC(C)(C)c1ccc(-c2cnc(-c3ccc(C[C@H](NC(=O)c4ccc(C(C)(C)C)s4)C(=O)N4CC[C@H](C(=O)O)C4)cc3)nc2)cc1 [Compound 768]
5.00 to 5.30 | CC(C)(C)c1ccc(C(=O)N[C@@H](Cc2ccc(-c3ncc(-c4ccc(-c5ccccc5)cc4)cn3)cc2)C(=O)N2CC[C@H](C(=O)O)C2)s1 [Compound 769]
> 6.10 | CC(C)CCCCOc1ccc(-c2cnc(-c3ccc(C[C@H](NC(=O)c4ccc(C(C)(C)C)s4)C(=O)N[C@H](C)C(=O)O)cc3)nc2)cc1 [Compound 770]
5.60 to 6.10 | CC(C)CCCOc1ccc(-c2cnc(-c3ccc(C[C@H](NC(=O)c4ccc(C(C)(C)C)s4)C(=O)N[C@H](C)C(=O)O)cc3)nc2)cc1 [Compound 771]
> 6.10 | CC(C)CCCCOc1ccc(-c2cnc(-c3ccc(C[C@H](NC(=O)c4ccc(C(C)(C)C)s4)C(=O)N4CC[C@H](C(=O)O)C4)cc3)nc2)cc1 [Compound 772]
5.60 to 6.10 | CC(C)CCCOc1ccc(-c2cnc(-c3ccc(C[C@H](NC(=O)c4ccc(C(C)(C)C)s4)C(=O)N4CC[C@H](C(=O)O)C4)cc3)nc2)cc1 [Compound 773]
5.60 to 6.10 | CC(C)(C)c1ccc(C(=O)N[C@@H](Cc2ccc(-c3ncc(-c4ccc(OCCC5CCCCC5)cc4)cn3)cc2)C(=O)N2CC[C@H](C(=O)O)C2)s1 [Compound 774]
> 6.10 | CC(C)(C)COc1ccc(-c2cnc(-c3ccc(C[C@H](NC(=O)c4ccc(C(C)(C)C)s4)C(=O)N4CC(C(=O)O)C4)cc3)nc2)cc1 [Compound 775]
> 6.10 | CCCCCCCOc1ccc(-c2cnc(-c3ccc(C[C@H](NC(=O)c4ccc(C(C)(C)C)s4)C(=O)N4CC(C(=O)O)C4)cc3)nc2)cc1C [Compound 776]
5.60 to 6.10 | CCCCCCOc1ccc(-c2cnc(-c3ccc(C[C@H](NC(=O)c4ccc(C(C)(C)C)s4)C(=O)N4CC(C(=O)O)C4)cc3)nc2)cc1 [Compound 777]
> 6.10 | CCCCCCCCOc1ccc(-c2cnc(-c3ccc(C[C@H](NC(=O)c4ccc(C(C)(C)C)s4)C(=O)N4CC(C(=O)O)C4)cc3)nc2)cc1 [Compound 778]
5.60 to 6.10 | CC(C)(C)c1ccc(C(=O)N[C@@H](Cc2ccc(-c3ncc(-c4ccc(OC5CCCC5)cc4)cn3)cc2)C(=O)N2CC(C(=O)O)C2)s1 [Compound 779]
5.30 to 5.60 | CC(C)(C)c1ccc(C(=O)N[C@@H](Cc2ccc(-c3ncc(-c4ccc(OC5CC5)cc4)cn3)cc2)C(=O)N2CC(C(=O)O)C2)s1 [Compound 780]
5.30 to 5.60 | CC(C)(C)c1ccc(C(=O)N[C@@H](Cc2ccc(-c3ncc(-c4ccc(OCC5CC5)cc4)cn3)cc2)C(=O)N2CC(C(=O)O)C2)s1 [Compound 781]
5.60 to 6.10 | CC(C)Oc1ccc(-c2cnc(-c3ccc(C[C@H](NC(=O)c4ccc(C(C)(C)C)s4)C(=O)N4CC(C(=O)O)C4)cc3)nc2)cc1 [Compound 782]
5.60 to 6.10 | CC(C)(C)c1ccc(-c2cnc(-c3ccc(C[C@H](NC(=O)c4ccc(C(C)(C)C)s4)C(=O)N4CC(C(=O)O)C4)cc3)nc2)cc1 [Compound 783]
5.00 to 5.30 | COc1ccc(-c2cnc(-c3ccc(C[C@H](NC(=O)c4ccc(C(C)(C)C)s4)C(=O)N4CC(C(=O)O)C4)cc3)nc2)cc1 [Compound 784]
5.30 to 5.60 | CCCOc1ccc(-c2cnc(-c3ccc(C[C@H](NC(=O)c4ccc(C(C)(C)C)s4)C(=O)N4CC(C(=O)O)C4)cc3)nc2)cc1 [Compound 785]
5.60 to 6.10 | CCCCOc1ccc(-c2cnc(-c3ccc(C[C@H](NC(=O)c4ccc(C(C)(C)C)s4)C(=O)N4CC(C(=O)O)C4)cc3)nc2)cc1 [Compound 786]
5.60 to 6.10 | CCCCCOc1ccc(-c2cnc(-c3ccc(C[C@H](NC(=O)c4ccc(C(C)(C)C)s4)C(=O)N4CC(C(=O)O)C4)cc3)nc2)cc1 [Compound 787]
5.00 to 5.30 | CC(C)(C)c1ccc(C(=O)N[C@@H](Cc2ccc(-c3ncc(-c4ccc(C(F)(F)F)cc4)cn3)cc2)C(=O)N2CC(C(=O)O)C2)s1 [Compound 788]
